Laboratory results published in EP0583821A1, “Atriopeptins, guanylate cyclase activators, and phosphodiesterase inhibitors as treatment for glaucoma, hydrocephalus and cerebral edema (cranial fluid volume dysfunction)” (THE GENERAL HOSPITAL CORPORATION, priority 1987, dated 1988).

What was measured:
[1] = tested on: adenylate cyclase; test: Adenylate cyclase activity in P1 fractions of whole choroid; format: biochemical, rabbit; conditions: rANP at high concentrations
Procedure: The effect of rANP on membrane-bound guanylate cyclase and adenylate cyclase activity in various brain-barrier tissues and tissue fractions from rabbit was compared with its activity in cerebrum and cerebellum. Guanylate cyclase was measured as the rate of cyclic GMP formation by modifications of the technique of Waldman et al., supra, incorporated herein by reference. Briefly, tissues were homogenized (10 mg wet weight per milliliter) in 50 mM tris-HCl, pH 8.0, 1 mM EDTA, 1 mM dithiothreitol, and 250 mM sucrose and centrifuged at 100,000g to obtain a P1 pellet. Reaction tubes contained (in 0.3 ml), 50 mM tris, pH 7.6, 6 mM MnCl₂, 0.5 mM 3-isobutyl, 1-methylxanthine (IBMX), 10 mM theophylline, 3 mM GTP, hormone (in 0.03 ml containing 2.5 mM ascorbic acid and 0.1% bovine serum albumin), and 0.06 ml of P1 fraction (40 to 60 ug of protein). The reaction (4 minutes at 30°C) was started by addition of GTP and terminated by addition of 0.3 ml of 150 mM sodium acetate (pH 4.0) and boiling for 3 minutes. Cyclic GMP formed was subsequently measured by radioimmunoassay as described in example 6, infra. Under these conditions, guanylate cyclase activity was linear with time and tissue concentration. Adenylate cyclase activity in P1 fractions was measured according to the method described by Nathanson, et al., Science; 204:843 (1979); Mol. Pharmacol. 18:199 (1980), see Figure 1C . […] Neurosci. […]

[2] = tested on: choroid epithelial cells; test: Intracellular cyclic GMP content of isolated choroid epithelial cells; format: cell-based, rabbit; conditions: 5 minutes incubation; 1 uM rANP; PDE inhibitors theophylline (10 mM) and IBMX (0.5 mM)
Procedure: The effect of rANP on membrane-bound guanylate cyclase and adenylate cyclase activity in various brain-barrier tissues and tissue fractions from rabbit was compared with its activity in cerebrum and cerebellum. Guanylate cyclase was measured as the rate of cyclic GMP formation by modifications of the technique of Waldman et al., supra, incorporated herein by reference. Briefly, tissues were homogenized (10 mg wet weight per milliliter) in 50 mM tris-HCl, pH 8.0, 1 mM EDTA, 1 mM dithiothreitol, and 250 mM sucrose and centrifuged at 100,000g to obtain a P1 pellet. […] Cyclic GMP formed was subsequently measured by radioimmunoassay as described in example 6, infra. […] Adenylate cyclase activity in P1 fractions was measured according to the method described by Nathanson, et al., Science; 204:843 (1979); Mol. Pharmacol. 18:199 (1980), see Figure 1C . […]
Purified secretory epithelial cells were isolated and maintained in tissue culture medium in the absence of any hormones. […] More diffuse staining was found only in epithelium and not in vascular or stromal components of choroid epithelial cells as determined by fluorescein optics. […]
For one experiment, the mean ± range is shown for duplicate determinations, each assayed in triplicate for cyclic GMP content. […] After the cells were incubated for 5 minutes, they were killed and their cyclic GMP content was determined. […]

[3] = tested on: rabbits; test: CSF production by ventricular-cisternal perfusion after intraventricular drug; format: in vivo, rabbit
Procedure: Drug was given intraventricularly, either by bolus injection or by continuous addition (during a 10-minute period) to the CSF perfusion system. Ventricular-cisternal perfusion of Blue dextran was carried out by a closed system with active pumping both into and out of the catheters at a rate of […]. Output dye concentration was monitored continuously with an in-line photocell; and a separate, contralateral venticular catheter independently measured intracranial pressure. […] Drug was administered in an artificial CSF containing 0.01% rabbit serum albumin (RSA) and 0.25 mM ascorbate. […] In one animal, there was no change in CSF secretion rate, and in no case was there an increase in CSF production. […] During a period of 100 minutes, secretion rate dropped by 70%.

Ser-Leu-Arg-Arg-atriopeptin III (APIII) [rANP 1-28]
effect on adenylate cyclase activity [1]: small inhibition | increase in cyclic GMP content [2]: more than an eightfold increase | mean decrease in rate of CSF production ([3]; 13 positive responses, SEM, 30 pmol bolus or 3 to 30 pmol/min for 10 minutes intraventricular): 35.3% ± 6.9% | drop of CSF secretion rate ([3]; bolus injection of 30 pmol into the lateral ventricle, during 100 minutes, Fig. 3): 70% | positive responses (decrease in CSF production) ([3]; intraventricular bolus or infusion): 13 of 14
